Laboratory results as given in patent US10702506B2, “Small molecule inhibitors of pendrin ion exchange and pharmaceutical compositions” (THE REGENTS OF THE UNIVERSITY OF CALIFORNIA, priority 2016, dated 2020).
Like-named read-outs stand apart in the source and are kept apart here.

Legend:
pendrin = biological target: T1, pendrin (Homo sapiens, UniProt O43511); experiment: YFP (EYFP-HIF) fluorescence quenching assay of pendrin-mediated Cl− exchange (SCN−, I−, NO3−) in FRT cells; high-throughput screen; assay type: cell-based; parameters: expressed in transfected cells; conditions: for inhibition at 25 µM: FRT, read-out: Inh. (%), percentage inhibition of human pendrin
T1 sequence (O43511 1-780): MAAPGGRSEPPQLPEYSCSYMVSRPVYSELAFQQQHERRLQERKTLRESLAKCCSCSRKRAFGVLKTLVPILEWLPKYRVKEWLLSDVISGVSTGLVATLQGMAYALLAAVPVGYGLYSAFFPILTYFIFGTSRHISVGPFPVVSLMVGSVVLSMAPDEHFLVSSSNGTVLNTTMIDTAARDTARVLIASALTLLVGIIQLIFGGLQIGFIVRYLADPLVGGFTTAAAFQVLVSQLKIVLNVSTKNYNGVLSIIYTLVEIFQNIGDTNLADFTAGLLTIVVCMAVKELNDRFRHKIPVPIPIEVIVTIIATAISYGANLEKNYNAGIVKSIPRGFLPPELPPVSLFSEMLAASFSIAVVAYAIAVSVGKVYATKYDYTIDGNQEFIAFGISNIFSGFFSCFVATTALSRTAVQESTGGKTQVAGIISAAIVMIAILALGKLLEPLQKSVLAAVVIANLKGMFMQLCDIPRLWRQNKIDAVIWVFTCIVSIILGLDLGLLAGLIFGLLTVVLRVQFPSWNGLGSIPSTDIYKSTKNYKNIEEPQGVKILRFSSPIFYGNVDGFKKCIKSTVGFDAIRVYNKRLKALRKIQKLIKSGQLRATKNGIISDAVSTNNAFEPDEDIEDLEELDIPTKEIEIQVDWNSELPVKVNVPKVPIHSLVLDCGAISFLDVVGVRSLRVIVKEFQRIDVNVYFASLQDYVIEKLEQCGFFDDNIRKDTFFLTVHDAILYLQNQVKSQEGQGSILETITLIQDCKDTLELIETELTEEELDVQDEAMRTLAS
Description: Fischer rat thyroid (FRT) cells were cultured in Kaign's modified Ham's F12 medium supplemented with 10% FBS, 2 mM L-glutamine, 100 U/ml penicillin, […], […] myo-inositol and […] ascorbic acid. For high-throughput screening, FRT cells were stably transfected with EYFP-H148Q/I152L/F46L (EYFP-HIF; in pcDNA3.1/Hygro (+)), isolated using 0.25 mg/ml hygromycin B, and then transfected with pcDNA3.1 (+) encoding human pendrin with clonal cell lines selected using 0.5 mg/ml G418.
High-throughput screening was performed using a semi-automated screening platform (Beckman, Fullerton, Calif.) configured as described. FRT cells expressing human pendrin and EYFP-HIF were plated in 96-well black-walled, clear-bottom tissue culture plates (Corning, Corning, N.Y.) at a density of 20,000 cells/well, and cultured to confluence over 48 h. For screening, plates were washed twice with PBS (in mM: 137 NaCl, 2.7 KCl, 1.1 KH2PO4, 8.1 Na2HPO4, 0.9 CaCl2), 0.5 MgCl2) prior to addition of 100 μl PBS containing test compounds. Screening was done with ˜36,000 compounds from ChemDiv (San Diego, Calif.), TimTec (Newark, Del.), and Asinex (Winston-Salem, N.C.). After 10 min incubation with test compound, plates were transferred to a Tecan Infinite M1000 plate reader (Tecan, Morrisville, N.C.) for fluorescence assay of pendrin activity. The assay duration was 10 s with initial fluorescence intensity recorded for 2 s prior to addition of 100 μl of NaSCN-substituted PBS (137 mM NaCl replaced with NaSCN). All assay plates contained negative controls (DMSO). In some experiments Cl^− exchange for I^− or NO3^− was measured similarly using NaI and NaNO3-substituted PBS. Control experiments to measure basal ion transport rates were done in FRT cells expressing EYFP-HIF without pendrin.
FRT cells were chosen for screening due to their low intrinsic permeability to anions that are transported by pendrin. As depicted in FIGS. 1A and 2A, pendrin activity was assayed from the kinetics of the halide-sensitive fluorescent protein EYFP-HIF in response to addition of a SCN^−-containing solution to drive pendrin-mediated Cl^−/SCN^−. Pendrin inhibition reduces the rate of EYFP-HIF quenching. PDSinh-A01 land PDSinh-C01 decreased pendrin-mediated Cl^−/SCN^− and Cl^−/I^− exchange in a concentration-dependent manner, as measured by YFP fluorescence quenching. […] Because the only previously-described pendrin inhibitor is the weakly active compound niflumic acid, no positive control was included in the screening plates.

mice (CD-1 and C57Bl/6) = experiment: Acute furosemide diuresis model in mice; assay type: in vivo
Description: Pharmacokinetics measurements were done to guide studies of diuretic efficacy. Animal experiments were approved by UCSF Institutional Animal Care and Use Committee. Female CD1 mice (8-10 weeks) were injected with 10 mg/kg PDSinh-C01 (in saline containing 5% DMSO and 10% Kolliphor HS) ip and blood was collected by orbital puncture at 15, 30, 60, 150 and 240 min, and centrifuged at 5000 rpm for 15 min to separate plasma. Urine was collected in metabolic cages. An LC/MS method was developed to measure PDSinh-C01 concentrations in mouse blood and urine. Plasma and urine samples (60 μL) were mixed with 300-μL acetonitrile and centrifuged at 13000 rpm for 20 min, and 90 μL of the supernatant was taken for liquid chromatography/mass spectrometry (LC/MS; Waters 2695 and Micromass ZQ). […] Sodium and potassium concentrations in 3-h collected urine samples were measured by flame photometry (PFP7 Clinical Flame Photometer, Bibby Scientific Ltd, Stone. Staffs, UK). […] Blood gas was analyzed by iSTAT1 with CG4+ cartridges (Abbott Laboratories, Abbott Park, IL, USA). Urine pH was measured on freshly collected urine samples using an AB 15 pH Meter (Fisher Scientific, Pittsburgh, Pa., USA). Experiments with two groups were analyzed with Student's t-test, and experiments with 3 or more groups were analyzed using one-way analysis of variance and post-hoc Newman-Keuls multiple comparisons test. […]

Row | inhibition at 25 µM (pendrin) | IC50 (pendrin; Cl−/I− exchange, read-out: IC50 for Cl−/I− exchange) | IC50 (pendrin; Cl−/NO3− exchange, read-out: IC50 for Cl−/NO3− exchange) | time at which ~IC50 (half inhibition) was displayed, inhibition kinetics (pendrin; Cl−/SCN− exchange, 10 μM added for indicated times) | IC50 (pendrin; Cl−/SCN− exchange, read-out: IC50 for Cl−/SCN− exchange) | reversibility of inhibition by washout (pendrin; washout) | Structure (SMILES) | increase in urine volume (mice (CD-1 and C57Bl/6); 10 mg/kg ip with furosemide 5-50 mg/kg, 3 h urine) | 3-h urinary K+ excretion (mice (CD-1 and C57Bl/6); with furosemide)
1 | 83% |  |  |  |  |  | Cc1n[nH]c(-c2cc(S(=O)(=O)NC3CCCc4ccccc43)c(C)s2)c1C (stereo not drawn) [PDSinh-C01] | ~30% | no significant effect
2 | ~100% | ~8 µM | ~5 µM | 5 min | ~9 µM | reversible | Cn1nc(COc2cccc(F)c2)c2c1CCN(C(=O)Nc1ccc(Cl)cc1)C2 [PDSinh-A01] |  | 
